Data published in US11236055B2 (Venenum Biodesign, LLC, priority 2016, dated 2022).

Key:
[1] = Absorption vs. first pass metabolism: Cmax with and without 1-aminobenzotriazole (ABT) pre-treatment; assay type: in vivo, mouse; conditions: ICR mice, ABT 150 mg/kg p.o. 2 h before; compound 10 mg/kg p.o.
Method: Absorption Vs. First Pass Metabolism
In this study, the absorption was examined as compared to first pass metabolism of the compounds of the present invention. ICR mice (Hilltop) were pre-treated with 1-aminobenzotriazole (ABT), a nonselective inhibitor of cytochrome P450 enzymes to inhibit Cyp450-mediated degradation of the compounds in liver.
ABT was administered at 150 mg/kg in 5 mL/kg of 0.04% ethanol in 0.5% methyl cellulose (w/v) by oral gavage, 2 hours prior to test compound administration. The compounds 20AA and 20AC were administered by oral gavage at 10 mg/kg in 10 mL/kg of 20% PEG400/80% (0.5% (w/v) CMC containing 0.25% (v/v) Tween 80) (v/v), 2 hours after the ABT treatment. Blood was collected via orbital bleeding at predose, 0.25, 0.5, 1, 2, and 4 hours post-dose and the quantification of compound levels in plasma was accomplished by means of LC-MS/MS analysis as described in Example 59. Reference compound “Propranolol” that is known to be metabolized by Cyp450 was used as a positive control.
FIG. 4 depicts the Cmax (nM) of the compounds of the present invention with and without ABT pre-treatment.

[2] = target: T1, human TGR5 receptor (Homo sapiens, UniProt Q8TDU6); assay: Human TGR5 cAMP production assay; assay type: cell-based; conditions: human TGR5, luminescent cAMP assay; coded A-D; read-out: Human TGR5 Lum. cAMP Activity (EC50)
T1 construct: host or cells: CHO-K1 (hTGR5-CHO cells)
T1 sequence (Q8TDU6 1-330): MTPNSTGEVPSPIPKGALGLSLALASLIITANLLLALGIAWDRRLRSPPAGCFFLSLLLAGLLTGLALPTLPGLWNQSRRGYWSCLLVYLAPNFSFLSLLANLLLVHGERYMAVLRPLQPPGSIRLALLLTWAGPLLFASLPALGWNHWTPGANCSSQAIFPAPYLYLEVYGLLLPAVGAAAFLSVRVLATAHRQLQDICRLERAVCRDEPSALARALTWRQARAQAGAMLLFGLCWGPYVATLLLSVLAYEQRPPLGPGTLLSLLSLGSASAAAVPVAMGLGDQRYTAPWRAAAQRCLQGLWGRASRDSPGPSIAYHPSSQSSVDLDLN
Method in brief: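 CHO-K1 cells stably expressing human TGR5, with IBMX and cAMP antibody, were exposed to half-log serially diluted compound for 1 h at room temperature. cAMP measured by enzyme-fragment complementation luminescence (XS+ kit) after overnight incubation; EC50 values reported.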

[3] = target: T2, mouse TGR5 receptor (Mus musculus, UniProt Q80SS6); assay: Mouse TGR5 cAMP production assay (luminescent, DiscoveRx cAMP XS+); assay type: cell-based; conditions: HEK293-EBNA cells overexpressing mouse TGR5, luminescent cAMP XS+; coded A-D; read-out: Mouse TGR5 Lum. cAMP Activity (EC50)
T2 construct: expressed in transfected cells; host or cells: HEK293-EBNA (293 c18, ATCC CRL10852), Hygromycin B selection
T2 sequence (Q80SS6 1-329): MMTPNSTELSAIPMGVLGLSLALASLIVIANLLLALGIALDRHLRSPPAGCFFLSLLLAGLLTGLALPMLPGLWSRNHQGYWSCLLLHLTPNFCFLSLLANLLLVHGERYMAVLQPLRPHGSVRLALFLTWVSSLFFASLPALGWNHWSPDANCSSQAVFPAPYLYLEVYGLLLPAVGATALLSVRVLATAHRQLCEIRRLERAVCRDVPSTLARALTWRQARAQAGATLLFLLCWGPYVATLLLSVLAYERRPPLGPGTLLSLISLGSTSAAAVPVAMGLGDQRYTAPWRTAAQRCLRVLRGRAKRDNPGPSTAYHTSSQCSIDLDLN
Method in brief: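 HEK293-EBNA cells stably expressing mouse TGR5 were suspended in serum-free DMEM with 500 μM IBMX and preincubated 20 min with cAMP antibody. They were then exposed to half-log compound dilutions for 1 h at room temperature. cAMP measured by enzyme-fragment complementation luminescence after overnight incubation; EC50 derived.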

[4] = system: Mouse STC-1 cells; assay: STC-1 GLP-1 assay; assay type: cell-based; conditions: GLP-1 secretion, 2 h, coded A-C, read-out: Mouse STC-1 HTRF GLP-1 Activity (EC50)
Method: We evaluated Compounds of the present invention for their ability to induce GLP-1 production in mouse intestinal neuroendocrine tumor cells. Mouse STC-1 cells were cultured and maintained in high glucose DMEM (Sigma #5796) supplemented with 15% horse serum, 5% Fetal Bovine Serum (FBS), 1% penicillin/streptomycin, and 2 mM L-alanine L-glutamine (GlutaMax). Two days prior to analysis of GLP-1 secretion cells were harvested using Accutase (Sigma), spun down then resuspended in high glucose DMEM media containing 2 mM L-alanine L-glutamine (GlutaMax), 10% charcoal-dextran stripped FBS, and 50 μg/mL Gentamicin, at a density of 100,000 cells/mL. 100 μL of cell suspension was added to each well of a 96-well Poly-D-Lysine coated culture plate (Sigma; cat #2382493) and was incubated at 37° C. with 5% CO2.
Compounds were initially diluted in 100% DMSO (12-point serial dilution by half logs) in a 96-well plate and then were further diluted 1:500 in Hanks' Balanced Salt Solution (HBSS) containing protease inhibitor cocktail, DPP-IV inhibitor, and 0.1% fatty acid free bovine serum albumin. On the day of the experiment cells were washed once with HBSS. After wash, 100 μL of test compound was added to each well. The plate was incubated at 37° C. with 5% CO2 for 2 h. Supernatants were collected and GLP-1 secretion was measured using the Cisbio™ Active GLP-1 HTRF Assay Kit (Cisbio). Briefly, Anti-GLP-1-d2 conjugate and Anti-GLP-1 Terbium Cryptate conjugate stock solutions were prepared as per kit instructions. The two solutions were pre-mixed and 10 μL were transferred to a 384-well low volume plate (Greiner; cat #784075). 10 μL of collected supernatants were added to wells already containing the conjugate solution. The plate was covered and incubated at room temperature overnight. The plate was read on an Envision™ plate reader (Perkin Elmer).
In Table 34, EC50 values obtained from the STC-1 GLP-1 production assay for compounds of the present invention are summarized.

[5] = target: T2, mouse TGR5 receptor; assay: Mouse TGR5 cAMP production assay (HTRF, Cisbio cAMP HiRange); assay type: cell-based; conditions: HEK293-EBNA cells overexpressing mouse TGR5, HTRF cAMP HiRange; coded A-D
Method in brief: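 cAMP read by HTRF competition after 1 h room-temperature compound exposure of mouse TGR5-overexpressing HEK293-EBNA cells. Cells were suspended in serum-free DMEM containing 500 μM IBMX; compounds ran as 12-point half-log dilutions in duplicate; EC50 derived.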

SMILES: CC(C)NCC(O)COc1cccc2ccccc12 (stereo not shown) [propranolol, Propranolol, reference compound]
- Cmax with versus without ABT pre-treatment [1]: significantly higher

SMILES: COc1cnccc1-c1cccc(C(C)(C)NS(=O)(=O)c2ccccc2[N+](=O)[O-])c1 [Compound 2AU]
- EC50 [2]: < 100 nM
- EC50 [3]: < 100 nM
- EC50 [4]: 1000 to 30000 nM

SMILES: CCOC(=O)CCCN(C(C)(C)c1cccc(-c2ccncc2C)c1)S(=O)(=O)c1ccccc1C(F)(F)F [Compound 14A, Ethyl 4-(N-(2-(3-(3-methylpyridin-4-yl)phenyl)propan-2-yl)-2-(trifluoromethyl)phenylsulfonamido)butanoate]
- EC50 [2]: < 100 nM
- EC50 [5]: 100 to 999 nM
- EC50 [4]: 100 to 999 nM

SMILES: COc1cnccc1-c1cccc([C@H](C)NS(=O)(=O)c2ccccc2C(F)(F)F)c1 [Compound 2BQ]
- EC50 [2]: < 100 nM
- EC50 [3]: 100 to 999 nM
- EC50 [4]: 1000 to 30000 nM

SMILES: COC(=O)CN(C(C)(C)c1cccc(-c2ccncc2C)c1)S(=O)(=O)c1ccccc1C(F)(F)F [Compound 13, Methyl 2-(N-(2-(3-(3-methylpyridin-4-yl)phenyl)propan-2-yl)-2-(trifluoromethyl)phenylsulfonamido)acetate]
- EC50 [2]: < 100 nM
- EC50 [5]: 100 to 999 nM
- EC50 [4]: 1000 to 30000 nM

SMILES: Cc1cnccc1-c1cccc(C(NS(=O)(=O)c2ccccc2C(F)(F)F)C2CC2)c1 (racemic) [Compound 5AV, (+/−)N-(cyclopropyl(3-(3-methylpyridin-4-yl)phenyl)-methyl)-2-(trifluoromethyl)benzenesulfonamide]
- EC50 [2]: < 100 nM
- EC50 [5]: 100 to 999 nM
- EC50 [4]: 1000 to 30000 nM

SMILES: CCOC(=O)C[C@H](NS(=O)(=O)c1ccccc1C(F)(F)F)c1cccc(-c2ccncc2C)c1 [Compound 18A, (S)-ethyl 3-(3-(3-methylpyridin-4-yl)phenyl)-3-(2-(trifluoromethyl)phenylsulfonamido)-propanoate]
- EC50 [2]: < 100 nM
- EC50 [5]: < 100 nM
- EC50 [4]: 1000 to 30000 nM

SMILES: CCOc1cnccc1-c1cccc(C(C)(C)NS(=O)(=O)c2ccccc2C(F)(F)F)c1 [Compound 8AC, N-(2-(3-(3-ethoxypyridin-4-yl)phenyl)propan-2-yl)-2-(trifluoromethyl)benzenesulfonamide]
- EC50 [2]: < 100 nM
- EC50 [3]: 100 to 999 nM
- EC50 [4]: 100 to 999 nM

SMILES: Cc1cnccc1-c1cccc(C2CN(CCCC(=O)NCS(=O)(=O)O)CCN2S(=O)(=O)c2cccc(Cl)c2C)c1 (stereo not shown) [Compound 53, (4-(4-((3-Chloro-2-methylphenyl)sulfonyl)-3-(3-(3-methylpyridin-4-yl)phenyl)piperazin-1-yl)butanamido)methanesulfonic acid]
- EC50 [2]: 100 to 999 nM
- EC50 [5]: < 100 nM
- EC50 [4]: 100 to 999 nM

SMILES: COc1cnccc1-c1cccc(C(C)(C)NS(=O)(=O)c2ccccc2C(F)(F)F)c1 [Compound 2AV]
- EC50 [2]: < 100 nM
- EC50 [3]: 100 to 999 nM
- EC50 [4]: 1000 to 30000 nM
